# Measured values as given in ChEMBL document CHEMBL4334516, “Kinase Chemodiversity from the Arctic: The Breitfussins” (J Med Chem, 2019).
# pIC50: −log10 of the molar value.
# Key:
# [1] = target: T1, Mitogen-activated protein kinase 15 (Homo sapiens, UniProt Q8TD08); test: Inhibition of ERK8 (unknown origin) by [33P]-ATP filter binding kinase assay
# T1 sequence (Q8TD08 whole entry): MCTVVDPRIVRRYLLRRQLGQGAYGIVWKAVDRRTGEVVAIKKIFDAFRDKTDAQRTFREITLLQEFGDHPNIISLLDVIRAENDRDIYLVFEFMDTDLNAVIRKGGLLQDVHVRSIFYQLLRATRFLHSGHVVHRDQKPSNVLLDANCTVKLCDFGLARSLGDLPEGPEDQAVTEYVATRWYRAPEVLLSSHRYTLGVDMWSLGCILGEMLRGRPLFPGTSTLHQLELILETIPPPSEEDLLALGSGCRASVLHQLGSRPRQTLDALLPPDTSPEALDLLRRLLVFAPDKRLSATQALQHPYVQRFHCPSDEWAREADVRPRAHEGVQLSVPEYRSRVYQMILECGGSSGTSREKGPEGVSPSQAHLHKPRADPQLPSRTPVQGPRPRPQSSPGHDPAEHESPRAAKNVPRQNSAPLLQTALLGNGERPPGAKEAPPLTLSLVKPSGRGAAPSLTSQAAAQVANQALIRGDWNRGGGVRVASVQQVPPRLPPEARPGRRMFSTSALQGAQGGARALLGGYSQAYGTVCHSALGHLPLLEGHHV
# [2] = target: Serine/threonine-protein kinase pim-1 (Homo sapiens, UniProt P11309); test: Inhibition of PIM1 (unknown origin) by [33P]-ATP filter binding kinase assay
# [3] = target: Serine/threonine-protein kinase pim-3 (Homo sapiens, UniProt Q86V86); test: Inhibition of PIM3 (unknown origin) by [33P]-ATP filter binding kinase assay
# [4] = target: T2, Mitogen-activated protein kinase kinase kinase 7 (Homo sapiens, UniProt O43318); test: Inhibition of TAK1 (unknown origin) by [33P]-ATP filter binding kinase assay
# T2 sequence (O43318 whole entry): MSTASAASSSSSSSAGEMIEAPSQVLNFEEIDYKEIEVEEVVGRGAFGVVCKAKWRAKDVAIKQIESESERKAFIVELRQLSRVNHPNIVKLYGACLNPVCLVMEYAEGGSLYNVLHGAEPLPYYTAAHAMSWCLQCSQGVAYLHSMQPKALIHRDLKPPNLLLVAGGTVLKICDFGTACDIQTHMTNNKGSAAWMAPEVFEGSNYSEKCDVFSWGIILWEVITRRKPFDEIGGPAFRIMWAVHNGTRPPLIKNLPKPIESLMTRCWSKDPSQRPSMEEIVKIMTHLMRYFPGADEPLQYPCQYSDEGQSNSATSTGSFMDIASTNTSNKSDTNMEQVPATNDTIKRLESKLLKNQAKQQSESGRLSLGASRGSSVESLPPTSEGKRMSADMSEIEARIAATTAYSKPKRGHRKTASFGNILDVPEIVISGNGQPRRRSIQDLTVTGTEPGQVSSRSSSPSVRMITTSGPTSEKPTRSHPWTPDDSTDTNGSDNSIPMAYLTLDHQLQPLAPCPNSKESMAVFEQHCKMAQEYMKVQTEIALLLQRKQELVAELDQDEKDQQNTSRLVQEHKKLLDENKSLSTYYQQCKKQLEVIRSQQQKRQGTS
# [5] = target: T3, Aurora kinase A (Homo sapiens, UniProt O14965); test: Inhibition of Aurora A (unknown origin) by [33P]-ATP filter binding kinase assay
# T3 sequence (O14965 whole entry): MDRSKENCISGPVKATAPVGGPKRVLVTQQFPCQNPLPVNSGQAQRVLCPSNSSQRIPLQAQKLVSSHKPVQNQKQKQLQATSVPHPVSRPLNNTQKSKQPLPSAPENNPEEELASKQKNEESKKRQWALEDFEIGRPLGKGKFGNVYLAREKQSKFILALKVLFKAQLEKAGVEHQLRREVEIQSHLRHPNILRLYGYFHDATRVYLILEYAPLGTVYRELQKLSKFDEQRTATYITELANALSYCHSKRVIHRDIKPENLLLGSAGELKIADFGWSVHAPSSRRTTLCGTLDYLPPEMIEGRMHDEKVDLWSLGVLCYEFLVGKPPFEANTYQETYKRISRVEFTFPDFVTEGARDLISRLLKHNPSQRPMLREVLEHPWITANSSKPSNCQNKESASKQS
# [6] = target: Serine/threonine-protein kinase SIK3 (Homo sapiens, UniProt Q9Y2K2); test: Inhibition of SIK3 (unknown origin) by [33P]-ATP filter binding kinase assay
# [7] = target: T4, Mitogen-activated protein kinase kinase kinase kinase 2 (Homo sapiens, UniProt Q12851); test: Inhibition of GCK (unknown origin) by [33P]-ATP filter binding kinase assay
# T4 sequence (Q12851 whole entry): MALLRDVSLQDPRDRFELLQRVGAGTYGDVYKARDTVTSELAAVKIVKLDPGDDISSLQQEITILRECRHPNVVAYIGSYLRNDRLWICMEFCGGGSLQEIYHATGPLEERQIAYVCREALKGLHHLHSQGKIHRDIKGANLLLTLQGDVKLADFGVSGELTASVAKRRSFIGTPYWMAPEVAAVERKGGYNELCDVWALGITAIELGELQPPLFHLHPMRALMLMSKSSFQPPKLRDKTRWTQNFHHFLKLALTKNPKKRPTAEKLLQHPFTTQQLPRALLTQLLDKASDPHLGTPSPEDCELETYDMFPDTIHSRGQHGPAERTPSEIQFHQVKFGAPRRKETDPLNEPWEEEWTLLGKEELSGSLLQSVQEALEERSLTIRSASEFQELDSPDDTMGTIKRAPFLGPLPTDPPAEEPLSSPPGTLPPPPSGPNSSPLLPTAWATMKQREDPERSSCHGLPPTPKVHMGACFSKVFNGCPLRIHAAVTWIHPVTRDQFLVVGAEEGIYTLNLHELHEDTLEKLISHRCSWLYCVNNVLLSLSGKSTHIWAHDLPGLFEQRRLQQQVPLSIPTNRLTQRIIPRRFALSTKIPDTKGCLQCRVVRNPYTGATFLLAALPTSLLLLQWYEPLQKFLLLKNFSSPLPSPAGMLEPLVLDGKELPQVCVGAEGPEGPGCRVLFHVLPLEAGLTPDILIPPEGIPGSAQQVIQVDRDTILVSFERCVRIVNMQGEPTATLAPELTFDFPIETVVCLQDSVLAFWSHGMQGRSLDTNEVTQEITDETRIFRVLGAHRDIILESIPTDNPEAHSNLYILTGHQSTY
# [8] = system: MV4-11; test: Cytotoxicity in human MV4-11 cells assessed as reduction in cell viability incubated for 72 hrs by MTS assay; format: functional, cell-based; conditions: MV4-11, 72 h
# [9] = system: MCF7; test: Cytotoxicity in human MCF7 cells assessed as reduction in cell viability incubated for 72 hrs by MTS assay; format: functional, cell-based; conditions: MCF7, 72 h
# [10] = target: Dual specificity tyrosine-phosphorylation-regulated kinase 1A (Homo sapiens, UniProt Q13627); test: Inhibition of DYRK1A (unknown origin) by [33P]-ATP filter binding kinase assay
# [11] = system: HT-29; test: Cytotoxicity in human HT-29 cells assessed as reduction in cell viability incubated for 72 hrs by MTS assay; format: functional, cell-based; conditions: HT-29, 72 h
# [12] = target: Mitogen-activated protein kinase kinase kinase 9 (Homo sapiens, UniProt P80192); test: Inhibition of MLK1 (unknown origin) by [33P]-ATP filter binding kinase assay
# [13] = system: A2058; test: Cytotoxicity in human A2058 cells assessed as reduction in cell viability incubated for 72 hrs by MTS assay; format: functional, cell-based; conditions: A2058, 72 h
# [14] = system: MRC5; test: Cytotoxicity in human MRC5 cells assessed as reduction in cell viability incubated for 72 hrs by MTS assay; format: cell-based; conditions: MRC5, 72 h
# [15] = system: MDA-MB-468; test: Cytotoxicity in human MDA-MB-468 cells assessed as reduction in cell viability incubated for 72 hrs by MTS assay; format: functional, cell-based; conditions: MDA-MB-468, 72 h
# [16] = target: Receptor-interacting serine/threonine-protein kinase 2 (Homo sapiens, UniProt O43353); test: Inhibition of RIPK2 (unknown origin) by [33P]-ATP filter binding kinase assay
# [17] = target: Serine/threonine-protein kinase pim-2 (Homo sapiens, UniProt Q9P1W9); test: Inhibition of PIM2 (unknown origin) by [33P]-ATP filter binding kinase assay
# [18] = system: MOLT-4; test: Cytotoxicity in human MOLT4 cells assessed as reduction in cell viability incubated for 72 hrs by MTS assay; format: functional, cell-based; conditions: MOLT-4, 72 h
# [19] = target: Aurora kinase B (Homo sapiens, UniProt Q96GD4); test: Inhibition of Aurora B (unknown origin) by [33P]-ATP filter binding kinase assay
# [20] = system: SK-BR-3; test: Cytotoxicity in human SK-BR-3 cells assessed as reduction in cell viability incubated for 72 hrs by MTS assay; format: functional, cell-based; conditions: SK-BR-3, 72 h
# [21] = target: Mitogen-activated protein kinase kinase kinase 11 (Homo sapiens, UniProt Q16584); test: Inhibition of MLK3 (unknown origin) by [33P]-ATP filter binding kinase assay
# [22] = target: Cyclin-dependent kinase 9 (Homo sapiens, UniProt P50750); test: Inhibition of CDK9 (unknown origin)
# Chain of Receptor-interacting serine/threonine-protein kinase 2 (O43353 whole entry): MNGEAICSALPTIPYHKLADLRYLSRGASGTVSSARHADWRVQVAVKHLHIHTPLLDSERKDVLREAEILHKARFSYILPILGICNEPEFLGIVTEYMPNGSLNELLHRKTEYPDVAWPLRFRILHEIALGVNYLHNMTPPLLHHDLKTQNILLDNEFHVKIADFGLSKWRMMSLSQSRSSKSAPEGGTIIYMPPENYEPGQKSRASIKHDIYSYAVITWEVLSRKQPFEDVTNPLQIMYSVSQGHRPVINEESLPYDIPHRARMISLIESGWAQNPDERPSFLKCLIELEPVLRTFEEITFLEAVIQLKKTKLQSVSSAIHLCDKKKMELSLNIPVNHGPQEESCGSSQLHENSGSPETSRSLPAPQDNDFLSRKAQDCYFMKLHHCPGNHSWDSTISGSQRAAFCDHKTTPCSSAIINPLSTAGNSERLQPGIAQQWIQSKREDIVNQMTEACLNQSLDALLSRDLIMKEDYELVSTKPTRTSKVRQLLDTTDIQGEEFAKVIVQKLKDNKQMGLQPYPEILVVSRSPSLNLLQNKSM
# Chain of Mitogen-activated protein kinase kinase kinase 9 (P80192 whole entry): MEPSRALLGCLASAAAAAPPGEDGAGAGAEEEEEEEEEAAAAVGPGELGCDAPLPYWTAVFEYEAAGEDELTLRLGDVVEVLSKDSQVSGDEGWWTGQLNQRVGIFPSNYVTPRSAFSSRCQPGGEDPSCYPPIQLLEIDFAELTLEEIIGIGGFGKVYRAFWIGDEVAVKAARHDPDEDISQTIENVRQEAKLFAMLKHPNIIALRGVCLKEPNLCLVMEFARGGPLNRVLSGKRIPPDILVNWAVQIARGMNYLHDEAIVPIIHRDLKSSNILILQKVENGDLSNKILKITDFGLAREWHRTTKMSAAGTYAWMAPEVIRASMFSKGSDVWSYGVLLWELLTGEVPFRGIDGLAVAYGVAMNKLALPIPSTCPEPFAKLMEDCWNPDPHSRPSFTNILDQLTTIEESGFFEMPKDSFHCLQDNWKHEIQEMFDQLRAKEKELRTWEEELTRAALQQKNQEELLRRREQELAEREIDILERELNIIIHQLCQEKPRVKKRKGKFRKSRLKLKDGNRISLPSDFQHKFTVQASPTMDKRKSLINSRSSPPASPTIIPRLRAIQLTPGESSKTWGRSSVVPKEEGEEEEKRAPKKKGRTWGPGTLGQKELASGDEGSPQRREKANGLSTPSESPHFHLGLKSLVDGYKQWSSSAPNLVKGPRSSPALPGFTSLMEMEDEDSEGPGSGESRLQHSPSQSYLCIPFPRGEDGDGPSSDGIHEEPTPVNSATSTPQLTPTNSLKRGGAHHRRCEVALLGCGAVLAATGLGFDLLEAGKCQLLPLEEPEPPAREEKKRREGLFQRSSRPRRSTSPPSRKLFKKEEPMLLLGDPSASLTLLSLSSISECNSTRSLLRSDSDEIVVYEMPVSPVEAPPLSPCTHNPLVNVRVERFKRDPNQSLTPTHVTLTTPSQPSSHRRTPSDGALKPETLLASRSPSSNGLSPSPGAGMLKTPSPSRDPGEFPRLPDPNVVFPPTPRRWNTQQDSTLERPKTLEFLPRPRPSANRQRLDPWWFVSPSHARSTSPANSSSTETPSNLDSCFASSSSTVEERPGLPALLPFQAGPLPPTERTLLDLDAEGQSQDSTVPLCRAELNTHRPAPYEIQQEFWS
# Chain of Mitogen-activated protein kinase kinase kinase 11 (Q16584 whole entry): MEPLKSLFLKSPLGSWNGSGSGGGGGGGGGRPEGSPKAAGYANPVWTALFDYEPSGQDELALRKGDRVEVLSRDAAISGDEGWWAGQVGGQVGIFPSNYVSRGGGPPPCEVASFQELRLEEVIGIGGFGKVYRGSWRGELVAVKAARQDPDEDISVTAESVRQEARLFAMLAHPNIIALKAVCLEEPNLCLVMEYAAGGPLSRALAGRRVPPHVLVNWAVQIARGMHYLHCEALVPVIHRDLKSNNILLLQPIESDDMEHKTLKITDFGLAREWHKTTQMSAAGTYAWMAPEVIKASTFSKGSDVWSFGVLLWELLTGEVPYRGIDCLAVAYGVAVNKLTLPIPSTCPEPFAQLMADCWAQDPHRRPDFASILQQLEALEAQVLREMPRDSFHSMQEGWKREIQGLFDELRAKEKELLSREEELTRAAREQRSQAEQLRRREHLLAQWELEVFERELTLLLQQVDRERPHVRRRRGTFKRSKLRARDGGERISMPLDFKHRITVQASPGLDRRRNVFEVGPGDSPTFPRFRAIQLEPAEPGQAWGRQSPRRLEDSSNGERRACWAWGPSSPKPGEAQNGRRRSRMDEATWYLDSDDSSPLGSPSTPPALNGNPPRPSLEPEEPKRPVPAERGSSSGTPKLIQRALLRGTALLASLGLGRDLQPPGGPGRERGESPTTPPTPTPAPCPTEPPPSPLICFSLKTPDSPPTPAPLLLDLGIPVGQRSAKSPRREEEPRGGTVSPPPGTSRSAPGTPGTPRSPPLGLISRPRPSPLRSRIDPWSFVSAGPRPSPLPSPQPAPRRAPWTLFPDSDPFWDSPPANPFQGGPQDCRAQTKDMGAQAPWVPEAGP
# Chain of Serine/threonine-protein kinase pim-2 (Q9P1W9 whole entry): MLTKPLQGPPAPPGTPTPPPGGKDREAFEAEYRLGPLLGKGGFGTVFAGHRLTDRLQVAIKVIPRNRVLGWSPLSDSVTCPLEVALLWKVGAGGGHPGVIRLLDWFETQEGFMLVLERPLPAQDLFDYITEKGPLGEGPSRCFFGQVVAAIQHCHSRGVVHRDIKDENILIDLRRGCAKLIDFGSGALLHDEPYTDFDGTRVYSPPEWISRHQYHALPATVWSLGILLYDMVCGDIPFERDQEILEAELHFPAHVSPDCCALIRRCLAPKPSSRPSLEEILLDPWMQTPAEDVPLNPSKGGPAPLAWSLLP
# Chain of Aurora kinase B (Q96GD4 whole entry): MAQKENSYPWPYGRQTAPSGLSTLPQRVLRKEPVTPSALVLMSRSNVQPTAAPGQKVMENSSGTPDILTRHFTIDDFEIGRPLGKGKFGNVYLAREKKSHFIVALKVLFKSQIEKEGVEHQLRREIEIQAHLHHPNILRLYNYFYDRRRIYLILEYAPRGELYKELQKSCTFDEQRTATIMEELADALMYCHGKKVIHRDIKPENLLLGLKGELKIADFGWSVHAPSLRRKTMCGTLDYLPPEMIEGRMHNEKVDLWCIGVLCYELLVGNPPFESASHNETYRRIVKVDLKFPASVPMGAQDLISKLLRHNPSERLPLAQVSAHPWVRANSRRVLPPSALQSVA
# Chain of Serine/threonine-protein kinase SIK3 (Q9Y2K2 whole entry): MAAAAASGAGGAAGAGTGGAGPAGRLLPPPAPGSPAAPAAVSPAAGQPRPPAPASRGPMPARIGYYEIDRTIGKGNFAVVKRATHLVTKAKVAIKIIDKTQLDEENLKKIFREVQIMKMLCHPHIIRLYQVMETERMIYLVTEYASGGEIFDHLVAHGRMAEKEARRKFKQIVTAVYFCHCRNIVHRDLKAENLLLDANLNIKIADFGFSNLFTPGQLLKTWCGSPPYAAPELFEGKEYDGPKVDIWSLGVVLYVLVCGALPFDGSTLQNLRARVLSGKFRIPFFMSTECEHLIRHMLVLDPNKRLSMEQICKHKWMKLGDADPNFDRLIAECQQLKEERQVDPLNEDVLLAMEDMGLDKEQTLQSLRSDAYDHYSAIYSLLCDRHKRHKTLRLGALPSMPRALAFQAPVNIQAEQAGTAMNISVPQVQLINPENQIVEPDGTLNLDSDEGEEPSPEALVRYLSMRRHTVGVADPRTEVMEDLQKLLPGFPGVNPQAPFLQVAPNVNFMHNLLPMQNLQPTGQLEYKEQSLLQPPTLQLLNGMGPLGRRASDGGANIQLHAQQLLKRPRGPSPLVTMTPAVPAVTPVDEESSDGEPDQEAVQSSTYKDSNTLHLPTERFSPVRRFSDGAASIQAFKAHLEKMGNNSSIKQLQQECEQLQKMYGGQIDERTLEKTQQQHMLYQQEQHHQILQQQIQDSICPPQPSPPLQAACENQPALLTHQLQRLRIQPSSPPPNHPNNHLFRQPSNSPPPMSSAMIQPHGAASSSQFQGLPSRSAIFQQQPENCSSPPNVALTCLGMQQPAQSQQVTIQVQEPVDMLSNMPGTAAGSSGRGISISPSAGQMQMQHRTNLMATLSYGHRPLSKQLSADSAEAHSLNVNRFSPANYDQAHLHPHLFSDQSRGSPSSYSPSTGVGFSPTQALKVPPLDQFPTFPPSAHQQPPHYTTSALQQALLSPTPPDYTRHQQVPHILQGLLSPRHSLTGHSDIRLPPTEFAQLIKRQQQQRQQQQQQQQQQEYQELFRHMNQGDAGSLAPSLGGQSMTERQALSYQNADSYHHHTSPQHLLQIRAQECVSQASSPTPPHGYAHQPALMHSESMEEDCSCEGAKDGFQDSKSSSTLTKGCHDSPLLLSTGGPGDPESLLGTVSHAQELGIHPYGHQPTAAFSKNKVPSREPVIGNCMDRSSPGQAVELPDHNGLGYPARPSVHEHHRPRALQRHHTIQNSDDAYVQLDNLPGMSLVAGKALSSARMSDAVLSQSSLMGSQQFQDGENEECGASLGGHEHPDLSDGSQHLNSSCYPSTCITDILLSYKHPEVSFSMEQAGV
SMILES,pIC50 [1],pIC50 [2],pIC50 [3],pIC50 [4],pIC50 [5],pIC50 [6],pIC50 [7],pIC50 [8],pIC50 [9],pIC50 [10],pIC50 [11],pIC50 [12],pIC50 [13],pIC50 [14],pIC50 [15],pIC50 [16],pIC50 [17],pIC50 [18],pIC50 [19],pIC50 [20],also measured
COc1cc(Br)cc2[nH]cc(-c3cnc(-c4cc(Br)c[nH]4)o3)c12,< 5.00,4.37,< 5.00,4.44,< 5.00,< 5.00,< 5.00,< 5.00,< 5.00,< 5.00,< 5.00,4.66,< 5.00,< 5.00,< 5.00,< 5.00,< 5.00,< 5.00,5.11,< 5.00,pIC50 [21]: 4.64
Cc1cc(=O)c2c(O)cc(O)c([C@@H]3CCN(C)C[C@@H]3O)c2o1,–,–,–,–,–,–,–,–,–,–,–,–,–,–,–,–,–,–,–,–,pIC50 [22]: 6.52
COc1cc(Br)cc2[nH]c(I)c(-c3cnc(-c4ccc[nH]4)o3)c12,< 5.00,4.74,< 5.00,4.74,< 5.00,< 5.00,4.40,< 5.00,< 5.00,< 5.00,< 5.00,4.68,< 5.00,< 5.00,< 5.00,< 5.00,< 5.00,< 5.00,4.51,< 5.00,pIC50 [21]: 4.72
